Active and inactive are the calls of the source. The rule behind the calls is not given here.
Columns and labels:
HCC827 [1] = experiment: Induction of cell cycle arrest in human HCC827 cells harboring EGFR del E746-A750 mutant assessed as accumulation of cells in G0/G1 phase at 1 uM measured after 18 hrs by PI/RNaseA staining based flow cytometry analysis (Rvb= 49.60%); type: functional
HCC827 [2] = experiment: Induction of cell cycle arrest in human HCC827 cells harboring EGFR del E746-A750 mutant assessed as accumulation of cells in G2/M phase at 5 uM measured after 18 hrs by PI/RNaseA staining based flow cytometry analysis (Rvb= 16.78%); type: functional
NCI-H1975 [3] = experiment: Induction of cell cycle arrest in human NCI-H1975 cells harboring EGFR L858R/T790M mutant assessed as accumulation of cells in G2/M phase at 1 uM measured after 18 hrs by PI/RNaseA staining based flow cytometry analysis (Rvb= 17.33%); type: functional
HCC827 [4] = experiment: Induction of cell cycle arrest in human HCC827 cells harboring EGFR del E746-A750 mutant assessed as accumulation of cells in G2/M phase at 1 uM measured after 18 hrs by PI/RNaseA staining based flow cytometry analysis (Rvb= 16.78%); type: functional
NCI-H1975 [5] = experiment: Inhibition of AKT phosphorylation in human NCI-H1975 cells at 0.1 to 5 uM incubated for 2 hrs by immunoblotting analysis; type: cell-based; conditions: dose 0.1-5 µM
NCI-H1975 [6] = experiment: Induction of apoptosis in human NCI-H1975 cells harboring EGFR L858R/T790M mutant assessed as total apoptotic cells at 5 uM measured after 18 hrs by Annexin V-FITC/PI staining based flow cytometry analysis (Rvb= 9.2%); type: functional
NCI-H1975 [7] = experiment: Induction of cell cycle arrest in human NCI-H1975 cells harboring EGFR L858R/T790M mutant assessed as accumulation of cells in S phase at 1 uM measured after 18 hrs by PI/RNaseA staining based flow cytometry analysis (Rvb= 39.78%); type: functional
NCI-H1975 [8] = experiment: Induction of apoptosis in human NCI-H1975 cells harboring EGFR L858R/T790M mutant assessed as live cells at 5 uM measured after 18 hrs by Annexin V-FITC/PI staining based flow cytometry analysis (Rvb= 89.4%); type: functional
HCC827 [9] = experiment: Induction of cell cycle arrest in human HCC827 cells harboring EGFR del E746-A750 mutant assessed as accumulation of cells in G0/G1 phase at 0.5 uM measured after 18 hrs by PI/RNaseA staining based flow cytometry analysis (Rvb= 49.60%); type: functional
[10] = molecular target: Signal transducer and activator of transcription 3 (Homo sapiens) (UniProt P40763); experiment: Inhibition of STAT3 phosphorylation at Ser727 residue in human HBE cells at 5 uM incubated for 2 hrs by immunoblotting analysis; type: cell-based
Sequence of Signal transducer and activator of transcription 3 (Homo sapiens) (P40763 whole entry): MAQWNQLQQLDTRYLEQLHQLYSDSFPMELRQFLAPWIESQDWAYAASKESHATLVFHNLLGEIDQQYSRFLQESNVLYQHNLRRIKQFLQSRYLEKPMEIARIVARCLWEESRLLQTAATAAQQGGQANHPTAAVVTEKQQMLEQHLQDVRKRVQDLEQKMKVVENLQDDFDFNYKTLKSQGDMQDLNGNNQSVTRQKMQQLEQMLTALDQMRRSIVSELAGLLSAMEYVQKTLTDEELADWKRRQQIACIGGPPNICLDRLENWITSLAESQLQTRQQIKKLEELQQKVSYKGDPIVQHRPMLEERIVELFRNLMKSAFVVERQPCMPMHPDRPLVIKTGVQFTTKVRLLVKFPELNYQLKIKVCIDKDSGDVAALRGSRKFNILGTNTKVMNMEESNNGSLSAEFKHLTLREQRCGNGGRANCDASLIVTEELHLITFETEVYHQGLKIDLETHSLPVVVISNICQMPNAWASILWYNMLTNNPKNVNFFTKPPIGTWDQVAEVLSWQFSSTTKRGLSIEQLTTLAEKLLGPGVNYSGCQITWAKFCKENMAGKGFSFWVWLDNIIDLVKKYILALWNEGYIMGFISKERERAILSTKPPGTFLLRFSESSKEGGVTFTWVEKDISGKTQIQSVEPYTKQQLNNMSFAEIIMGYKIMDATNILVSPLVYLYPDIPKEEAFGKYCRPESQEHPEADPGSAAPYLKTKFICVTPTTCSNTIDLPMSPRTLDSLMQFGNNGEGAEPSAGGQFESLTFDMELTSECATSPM

A549 [11] = experiment: Induction of cell cycle arrest in human A549 cells harboring wild type EGFR assessed as accumulation of cells in G0/G1 phase at 1 uM measured after 18 hrs by PI/RNaseA staining based flow cytometry analysis (Rvb= 58.27%); type: functional
NCI-H460 = experiment: Cytotoxicity against human NCI-H460 cells harboring wild type EGFR assessed as reduction in cell viability measured after 48 hrs by CCK8 assay; type: functional, cell-based; conditions: NCI-H460, 48 h
NCI-H1975 [12] = experiment: Induction of apoptosis in human NCI-H1975 cells harboring EGFR L858R/T790M mutant assessed as dead cells at 0.5 uM measured after 18 hrs by Annexin V-FITC/PI staining based flow cytometry analysis (Rvb= […]); type: functional
NCI-H1975 [13] = experiment: Induction of apoptosis in human NCI-H1975 cells harboring EGFR L858R/T790M mutant assessed as early apoptotic cells at 0.5 uM measured after 18 hrs by Annexin V-FITC/PI staining based flow cytometry analysis (Rvb= […]); type: functional
HCC827 [14] = experiment: Induction of apoptosis in human HCC827 cells harboring EGFR del E746-A750 mutant assessed as total apoptotic cells at 5 uM measured after 18 hrs by Annexin V-FITC/PI staining based flow cytometry analysis (Rvb= 10.8%); type: functional
NCI-H1975 [15] = experiment: Induction of apoptosis in human NCI-H1975 cells harboring EGFR L858R/T790M mutant assessed as live cells at 0.5 uM measured after 18 hrs by Annexin V-FITC/PI staining based flow cytometry analysis (Rvb= 89.4%); type: functional
NCI-H1975 [16] = experiment: Induction of cell cycle arrest in human NCI-H1975 cells harboring EGFR L858R/T790M mutant assessed as accumulation of cells in S phase at 5 uM measured after 18 hrs by PI/RNaseA staining based flow cytometry analysis (Rvb= 39.78%); type: functional
[17] = molecular target: Ribosomal protein S6 kinase beta-1 (Homo sapiens) (UniProt P23443); experiment: Inhibition of P70S6K phosphorylation in human NCI-H1975 cells at 0.1 to 5 uM incubated for 2 hrs by immunoblotting analysis; type: cell-based; conditions: dose 0.1-5 µM
Sequence of Ribosomal protein S6 kinase beta-1 (Homo sapiens) (P23443 whole entry, looked up): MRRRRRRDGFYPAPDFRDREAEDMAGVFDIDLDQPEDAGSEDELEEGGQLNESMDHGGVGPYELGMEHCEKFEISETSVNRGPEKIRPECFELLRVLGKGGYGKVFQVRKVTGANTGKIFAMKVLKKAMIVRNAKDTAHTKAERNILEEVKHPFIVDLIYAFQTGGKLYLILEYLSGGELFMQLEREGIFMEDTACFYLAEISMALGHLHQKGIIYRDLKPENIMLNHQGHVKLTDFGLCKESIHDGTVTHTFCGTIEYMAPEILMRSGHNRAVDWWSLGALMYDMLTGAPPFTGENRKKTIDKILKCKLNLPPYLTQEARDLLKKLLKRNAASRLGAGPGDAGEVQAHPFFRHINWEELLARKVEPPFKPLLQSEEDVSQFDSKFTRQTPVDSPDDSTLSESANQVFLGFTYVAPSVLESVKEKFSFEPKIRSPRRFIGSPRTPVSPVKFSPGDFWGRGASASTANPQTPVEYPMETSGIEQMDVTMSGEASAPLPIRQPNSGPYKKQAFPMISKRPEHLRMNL

A549 [18] = experiment: Induction of cell cycle arrest in human A549 cells harboring wild type EGFR assessed as accumulation of cells in G0/G1 phase at 5 uM measured after 18 hrs by PI/RNaseA staining based flow cytometry analysis (Rvb= 58.27%); type: functional
HCC827 [19] = experiment: Induction of apoptosis in human HCC827 cells harboring EGFR del E746-A750 mutant assessed as early apoptotic cells at 0.5 uM measured after 18 hrs by Annexin V-FITC/PI staining based flow cytometry analysis (Rvb= 9.6%); type: functional
A549 [20] = experiment: Induction of cell cycle arrest in human A549 cells harboring wild type EGFR assessed as accumulation of cells in G0/G1 phase at 0.5 uM measured after 18 hrs by PI/RNaseA staining based flow cytometry analysis (Rvb= 58.27%); type: functional
[21] = molecular target: MAP kinase p38 (Homo sapiens) (UniProt O15264+Q15759+Q16539+P53778); experiment: Inhibition of p38 MAPK phosphorylation at Thr180/Tyr182 residue in human HBE cells at 5 uM incubated for 2 hrs by immunoblotting analysis; type: cell-based
A549 [22] = experiment: Cytotoxicity against human A549 cells harboring wild type EGFR assessed as reduction in cell viability measured after 48 hrs by CCK8 assay; type: functional, cell-based; conditions: A549, 48 h
[23] = molecular target: Ribosomal protein S6 kinase beta-1 (Homo sapiens) (UniProt P23443); experiment: Inhibition of P70S6K phosphorylation in human HCC827 cells at 0.1 to 5 uM incubated for 2 hrs by immunoblotting analysis; type: cell-based; conditions: dose 0.1-5 µM
A549 [24] = experiment: Induction of cell cycle arrest in human A549 cells harboring wild type EGFR assessed as accumulation of cells in S phase at 0.5 uM measured after 18 hrs by PI/RNaseA staining based flow cytometry analysis (Rvb= 33.26%); type: functional
HCC827 [25] = experiment: Induction of apoptosis in human HCC827 cells harboring EGFR del E746-A750 mutant assessed as early apoptotic cells at 5 uM measured after 18 hrs by Annexin V-FITC/PI staining based flow cytometry analysis (Rvb= 9.6%); type: functional
HBE = experiment: Inhibition of AKT/S6 phosphorylation […] in human HBE cells at 5 uM incubated for 2 hrs by immunoblotting analysis; type: cell-based
NCI-H1975 [26] = experiment: Induction of apoptosis in human NCI-H1975 cells harboring EGFR L858R/T790M mutant assessed as late apoptotic cells at 5 uM measured after 18 hrs by Annexin V-FITC/PI staining based flow cytometry analysis (Rvb= 0.1%); type: functional

Row | SMILES | Activity (HCC827 [1]) | Activity (HCC827 [2]) | Activity (NCI-H1975 [3]) | Activity (HCC827 [4]) | inhibition (NCI-H1975 [5]) | Activity (NCI-H1975 [6]) | Activity (NCI-H1975 [7]) | Activity (NCI-H1975 [8]) | Activity (HCC827 [9]) | inhibition [10] | Activity (A549 [11]) | IC50 (NCI-H460) | Activity (NCI-H1975 [12]) | Activity (NCI-H1975 [13]) | Activity (HCC827 [14]) | Activity (NCI-H1975 [15]) | Activity (NCI-H1975 [16]) | inhibition [17] | Activity (A549 [18]) | Activity (HCC827 [19]) | also measured
1 | C=CC(=O)Nc1cccc(Oc2nc(Nc3ccc(N4CCN(C)CC4)c(N)c3)nc3[nH]ccc23)c1 | 72.43% | 7.95% | 11.6% | 7.18% | Active | 16.1% | 19.24% | 81.9% | 74.57% | inactive | 64.23% | 26.7 µM | 2.5% | 16.1% | 28.7% | 81.1% | 10.15% | Active | 85.05% | 11.1% | Activity (A549 [20]): 60.45%; inhibition [21]: Active; IC50 (A549 [22]): 6.07 µM; inhibition [23]: Active; Activity (A549 [24]): 29.06%; Activity (HCC827 [25]): 12.1%; inhibition (HBE): inactive; Activity (NCI-H1975 [26]): 0.2%
2 | C=CC(=O)Nc1cccc(Oc2nc(Nc3ccc(N4CCN(C)CC4)c(F)c3)nc3[nH]ccc23)c1 [ABIVERTINIB] | 73% | 8.82% | 17.13% | 11.63% | Active | 11.7% | 18.87% | 86.3% | 75.11% | inactive | 62.04% | 6.02 µM | 1.5% | 8.3% | 35.4% | 89% | 9.8% | Active | 77.6% | 12% | Activity (A549 [20]): 59.82%; inhibition [21]: Active; IC50 (A549 [22]): 1.92 µM; inhibition [23]: Active; Activity (A549 [24]): 30.03%; Activity (HCC827 [25]): 13.8%; inhibition (HBE): inactive; Activity (NCI-H1975 [26]): 0.4%
3 | C=CC(=O)Nc1cccc(Oc2nc(Nc3ccc(N4CCN(C)CC4)c([N+](=O)[O-])c3)nc3[nH]ccc23)c1 | 77.64% | 14.12% | 14.81% | 11.55% | Active | 13.5% | 13.11% | 84.7% | 77.19% | inactive | 70.46% | 8.02 µM | 2% | 12.4% | 30.3% | 85.3% | 10.03% | Active | 82.55% | 12.4% | Activity (A549 [20]): 62.63%; inhibition [21]: Active; IC50 (A549 [22]): 2.9 µM; inhibition [23]: Active; Activity (A549 [24]): 27.39%; Activity (HCC827 [25]): 10.9%; inhibition (HBE): inactive; Activity (NCI-H1975 [26]): 0.3%
